Consider seven compounds from patent publication US9885088B2, “Rapid phenotypic diagnosis of pathogens and drug resistance using transcriptional expression signatures” (priority 2010, dated 2018).

Experiment [1] relates to E. coli. Put plainly: microbe, parasite or virus in culture. In kind it is cell-based.
The subject of experiment [2] is E. coli. The format is cell-based. Particulars: wild-type E. coli K-12, 10-30 minute exposure.
The subject of experiment [3] is M. tuberculosis. Put plainly: microbe, parasite or virus in culture. In kind it is cell-based.
Experiment [4] relates to M. tuberculosis. In kind it is cell-based.
For experiment [5], the system named is M. tuberculosis. To be noted: M. tuberculosis after drug exposure, cited from earlier work; for Magnitude of induction/repression in prior microarray-based assays, RV1570 bioD: gene RV1570 (bioD); for Magnitude of induction/repression in prior microarray-based assays, RV1570 bioD / Magnitude of induction/repression in prior microarray-based assays, RV1606 hisI / Magnitude of induction/repression in prior microarray-based assays, Rv0984 moaB2 / Magnitude of induction/repression in prior microarray-based assays, Rv2296 haloalkane / Magnitude of induction/repression in prior microarray-based assays, Rv2364c era: purpose RIF; for Magnitude of induction/repression in prior microarray-based assays, RV1606 hisI: gene RV1606 (hisI); for Magnitude of induction/repression in prior microarray-based assays, RV3675: gene RV3675 (Rv3675); for Magnitude of induction/repression in prior microarray-based assays, RV3675 / Magnitude of induction/repression in prior microarray-based assays, Rv2245 kasA / Magnitude of induction/repression in prior microarray-based assays, Rv2247 accD6 / Magnitude of induction/repression in prior microarray-based assays, Rv2846c efpA / Magnitude of induction/repression in prior microarray-based assays, Rv3801c fadD32: purpose INH; for Magnitude of induction/repression in prior microarray-based assays, Rv0055 rpsR: gene Rv0055 (rpsR); for Magnitude of induction/repression in prior microarray-based assays, Rv0055 rpsR / Magnitude of induction/repression in prior microarray-based assays, Rv1317c alkA / Magnitude of induction/repression in prior microarray-based assays, Rv2737c recA / Magnitude of induction/repression in prior microarray-based assays, Rv2790c ltp1 / Magnitude of induction/repression in prior microarray-based assays, Rv3296 lhr: purpose FQ; for Magnitude of induction/repression in prior microarray-based assays, Rv0667 rpoB: gene Rv0667 (rpoB); for Magnitude of induction/repression in prior microarray-based assays, Rv0667 rpoB / Magnitude of induction/repression in prior microarray-based assays, Rv1980c mpt64 / Magnitude of induction/repression in prior microarray-based assays, Rv2703 sigA / Magnitude of induction/repression in prior microarray-based assays, Rv3583c: purpose control; for Magnitude of induction/repression in prior microarray-based assays, Rv0813c CHP: gene Rv0813c (CHP); for Magnitude of induction/repression in prior microarray-based assays, Rv0813c CHP / Magnitude of induction/repression in prior microarray-based assays, Rv1511 gmdA / Magnitude of induction/repression in prior microarray-based assays, Rv1608c bcpB / Magnitude of induction/repression in prior microarray-based assays, Rv1832 gcvB / Magnitude of induction/repression in prior microarray-based assays, Rv3417c groEL: purpose SM; for Magnitude of induction/repression in prior microarray-based assays, Rv0984 moaB2: gene Rv0984 (moaB2); for Magnitude of induction/repression in prior microarray-based assays, Rv1317c alkA: gene Rv1317c (alkA); for Magnitude of induction/repression in prior microarray-based assays, Rv1511 gmdA: gene Rv1511 (gmdA); for Magnitude of induction/repression in prior microarray-based assays, Rv1608c bcpB: gene Rv1608c (bcpB); for Magnitude of induction/repression in prior microarray-based assays, Rv1832 gcvB: gene Rv1832 (gcvB); for Magnitude of induction/repression in prior microarray-based assays, Rv1980c mpt64: gene Rv1980c (mpt64); for Magnitude of induction/repression in prior microarray-based assays, Rv2245 kasA: gene Rv2245 (kasA); for Magnitude of induction/repression in prior microarray-based assays, Rv2247 accD6: gene Rv2247 (accD6); for Magnitude of induction/repression in prior microarray-based assays, Rv2296 haloalkane: gene Rv2296 (haloalkane); for Magnitude of induction/repression in prior microarray-based assays, Rv2364c era: gene Rv2364c (era); for Magnitude of induction/repression in prior microarray-based assays, Rv2703 sigA: gene Rv2703 (sigA); for Magnitude of induction/repression in prior microarray-based assays, Rv2737c recA: gene Rv2737c (recA); for Magnitude of induction/repression in prior microarray-based assays, Rv2790c ltp1: gene Rv2790c (ltp1); for Magnitude of induction/repression in prior microarray-based assays, Rv2846c efpA: gene Rv2846c (efpA); for Magnitude of induction/repression in prior microarray-based assays, Rv3296 lhr: gene Rv3296 (lhr); for Magnitude of induction/repression in prior microarray-based assays, Rv3417c groEL: gene Rv3417c (groEL); for Magnitude of induction/repression in prior microarray-based assays, Rv3583c: gene Rv3583c; for Magnitude of induction/repression in prior microarray-based assays, Rv3801c fadD32: gene Rv3801c (fadD32).

Setting [6] is: E. coli clinical isolate CIEC9955.
Setting [7] is: Mycobacterium tuberculosis, H37RV.

≈ marks a conversion by molar mass, not a printed value. Read-outs that look alike come from different tables or passages of the source.

As to `CC1(C)S[C@@H]2[C@H](NC(=O)[C@H](N)c3ccccc3)C(=O)N2[C@H]1C(=O)O` [Ampicillin], the “Sensitive (S) or Resistant (R)” value was “R” with E. coli [1] (setting [6]) and “S” with E. coli [1] (E. coli strain K12). Also, the MIC with E. coli [1] (Escherichia coli, E. coli clinical isolate CIEC0838, read-out: MIC) is over 250 µg/mL; in the experiment with E. coli [1] (Escherichia coli, E. coli clinical isolate CIEC2219, read-out: MIC), over 250 µg/mL; with E. coli [1] (Escherichia coli, E. coli clinical isolate CIEC9181, read-out: MIC), over 250 µg/mL; with E. coli [1] (Escherichia coli, E. coli clinical isolate CIEC9955, read-out: MIC), over 250 µg/mL; in the experiment on E. coli [1] (Escherichia coli, E. coli strain DH5α, read-out: MIC), 8 µg/mL (≈ 22.9 µM); in the experiment on E. coli [1] (Escherichia coli, E. coli strain J53, read-out: MIC), 4 µg/mL (≈ 11.4 µM). In the experiment on E. coli [1] (Escherichia coli, E. coli strain K12, read-out: MIC), the MIC was determined as 4 µg/mL (≈ 11.4 µM). Further, in the experiment with E. coli [2], the “changes in transcript levels (drug-susceptible expression signature)” value is “expected changes in transcript levels”.
`O=C(O)c1cn(C2CC2)c2cc(N3CCNCC3)c(F)cc2c1=O` [Ciprofloxacin]: the MIC in the experiment with M. tuberculosis [3] amounted to 16 µg/mL (≈ 48.3 µM).
In the case of `CO[C@H]1/C=C/O[C@@]2(C)Oc3c(C)c(O)c4c(O)c(c(/C=N/N5CCN(C)CC5)c(O)c4c3C2=O)NC(=O)/C(C)=C\C=C\[C@H](C)[C@H](O)[C@@H](C)[C@@H](O)[C@@H](C)[C@H](OC(C)=O)[C@@H]1C` [Rifampin], in the experiment on M. tuberculosis [4], the “genes with drug-dependent induction” value was “bioD, hisI, era, and Rv2296”.
As to Gentamicin, in the experiment on E. coli [1], the “Sensitive (S) or Resistant (R)” value is “S and R”. The MIC was 8 µg/mL in the experiment on E. coli [1] (E. coli clinical isolate CIEC1676); 8 µg/mL in the experiment on E. coli [1] (E. coli clinical isolate CIEC1801); 125 µg/mL against E. coli [1] (E. coli clinical isolate CIEC2219); over 250 µg/mL in the experiment on E. coli [1] (E. coli clinical isolate CIEC4940); over 250 µg/mL in the experiment on E. coli [1] (E. coli clinical isolate CIEC9181); 16 µg/mL against E. coli [1] (setting [6]). Moreover, the MIC with E. coli [1] (E. coli strain K12) came to 8 µg/mL. Further, in the experiment on E. coli [2], the “changes in transcript levels (drug-susceptible expression signature)” value is listed as “expected changes in transcript levels”.
On to `NNC(=O)c1ccncc1` [Isoniazid], for which the MIC came out at 0.4 µg/mL (≈ 2.92 µM) in the experiment on M. tuberculosis [3] (Mycobacterium tuberculosis, BAA812) and 0.05 µg/mL (≈ 0.365 µM) in the experiment with M. tuberculosis [3] (setting [7]). Also, the “genes with drug-dependent induction” value with M. tuberculosis [4] was “kasA, fadD32, accD6, efpA, and Rv3675.1”.
Turning to `[H]/N=C(/N)N[C@H]1[C@H](O)[C@@H](O)[C@H](O[C@@H]2O[C@@H](C)[C@](O)(C=O)[C@H]2O[C@@H]2O[C@@H](CO)[C@H](O)[C@@H](O)[C@@H]2NC)[C@@H](N/C(N)=N\[H])[C@@H]1O` [Streptomycin], in the experiment on M. tuberculosis [3] (setting [7]), the MIC was found to be 1 µg/mL (≈ 1.72 µM). Moreover, in the experiment on M. tuberculosis [4], the “genes with drug-dependent induction” value is “CHP, bcpB, gcvB, and groEL”. Besides, in the experiment with M. tuberculosis [5], the “Magnitude of induction/repression in prior microarray-based assays, RV1570 bioD” value is −0.3; the “Magnitude of induction/repression in prior microarray-based assays, RV1606 hisI” value was −0.4; the “Magnitude of induction/repression in prior microarray-based assays, RV3675” value is given as 0.0; the “Magnitude of induction/repression in prior microarray-based assays, Rv0055 rpsR” value was 1.7. In addition, in the experiment with M. tuberculosis [5], the “Magnitude of induction/repression in prior microarray-based assays, Rv0667 rpoB” value is reported as 1.4; the “Magnitude of induction/repression in prior microarray-based assays, Rv0813c CHP” value is recorded as 3.8; the “Magnitude of induction/repression in prior microarray-based assays, Rv0984 moaB2” value was −1.1; the “Magnitude of induction/repression in prior microarray-based assays, Rv1317c alkA” value was 0.4. In the experiment with M. tuberculosis [5], the “Magnitude of induction/repression in prior microarray-based assays, Rv1511 gmdA” value was 1.6; the “Magnitude of induction/repression in prior microarray-based assays, Rv1608c bcpB” value is listed as 2.2; the “Magnitude of induction/repression in prior microarray-based assays, Rv1832 gcvB” value is listed as 1.3; the “Magnitude of induction/repression in prior microarray-based assays, Rv1980c mpt64” value is given as 0.4. In addition, in the experiment on M. tuberculosis [5], the “Magnitude of induction/repression in prior microarray-based assays, Rv2245 kasA” value is −1.9; the “Magnitude of induction/repression in prior microarray-based assays, Rv2247 accD6” value was −0.8; the “Magnitude of induction/repression in prior microarray-based assays, Rv2296 haloalkane” value is given as 0.1; the “Magnitude of induction/repression in prior microarray-based assays, Rv2364c era” value was −0.6. In the experiment with M. tuberculosis [5], the “Magnitude of induction/repression in prior microarray-based assays, Rv2703 sigA” value is 0.4; the “Magnitude of induction/repression in prior microarray-based assays, Rv2737c recA” value was −0.1; the “Magnitude of induction/repression in prior microarray-based assays, Rv2790c ltp1” value is on record as −1.1; the “Magnitude of induction/repression in prior microarray-based assays, Rv2846c efpA” value was −0.7. Moreover, in the experiment on M. tuberculosis [5], the “Magnitude of induction/repression in prior microarray-based assays, Rv3296 lhr” value was 0.1; the “Magnitude of induction/repression in prior microarray-based assays, Rv3417c groEL” value is given as 1.6; the “Magnitude of induction/repression in prior microarray-based assays, Rv3583c” value is on record as 1.0; the “Magnitude of induction/repression in prior microarray-based assays, Rv3801c fadD32” value is 0.8.
As for `CO[C@H]1/C=C/O[C@@]2(C)Oc3c(C)c(O)c4c(O)c(c(/C=N/N5CCN(C)CC5)c(O)c4c3C2=O)NC(=O)/C(C)=C\C=C\[C@H](C)[C@H](O)[C@@H](C)[C@@H](O)[C@@H](C)[C@H](OC(C)=O)[C@@H]1C` [RIF], in the experiment with M. tuberculosis [5], the “Magnitude of induction/repression in prior microarray-based assays, RV1570 bioD” value is listed as 1.2; the “Magnitude of induction/repression in prior microarray-based assays, RV1606 hisI” value is on record as 1.5; the “Magnitude of induction/repression in prior microarray-based assays, RV3675” value is 0.0; the “Magnitude of induction/repression in prior microarray-based assays, Rv0055 rpsR” value is given as −0.9. Further, in the experiment on M. tuberculosis [5], the “Magnitude of induction/repression in prior microarray-based assays, Rv0667 rpoB” value is on record as 0.1; the “Magnitude of induction/repression in prior microarray-based assays, Rv0813c CHP” value was 0.3; the “Magnitude of induction/repression in prior microarray-based assays, Rv0984 moaB2” value was 1.7; the “Magnitude of induction/repression in prior microarray-based assays, Rv1317c alkA” value was 0.5. For the same compound, in the experiment with M. tuberculosis [5], the “Magnitude of induction/repression in prior microarray-based assays, Rv1511 gmdA” value is −0.3; the “Magnitude of induction/repression in prior microarray-based assays, Rv1608c bcpB” value was 0.3; the “Magnitude of induction/repression in prior microarray-based assays, Rv1832 gcvB” value is −0.4; the “Magnitude of induction/repression in prior microarray-based assays, Rv1980c mpt64” value was −1.2. In addition, in the experiment with M. tuberculosis [5], the “Magnitude of induction/repression in prior microarray-based assays, Rv2245 kasA” value was −1.0; the “Magnitude of induction/repression in prior microarray-based assays, Rv2247 accD6” value is listed as −0.8; the “Magnitude of induction/repression in prior microarray-based assays, Rv2296 haloalkane” value is recorded as 1.2; the “Magnitude of induction/repression in prior microarray-based assays, Rv2364c era” value is recorded as 1.4. Further, in the experiment on M. tuberculosis [5], the “Magnitude of induction/repression in prior microarray-based assays, Rv2703 sigA” value is reported as −1.4; the “Magnitude of induction/repression in prior microarray-based assays, Rv2737c recA” value is −0.6; the “Magnitude of induction/repression in prior microarray-based assays, Rv2790c ltp1” value was −0.7; the “Magnitude of induction/repression in prior microarray-based assays, Rv2846c efpA” value is on record as −0.9. For the same compound, in the experiment on M. tuberculosis [5], the “Magnitude of induction/repression in prior microarray-based assays, Rv3296 lhr” value is listed as 0.2; the “Magnitude of induction/repression in prior microarray-based assays, Rv3417c groEL” value was −0.9; the “Magnitude of induction/repression in prior microarray-based assays, Rv3583c” value is given as −1.8; the “Magnitude of induction/repression in prior microarray-based assays, Rv3801c fadD32” value was −0.6.
